Source: PubChem BioAssay AID1963958 (Molecular Pharmacology Branch, DTP, NCI, 2024)

Tested on: MDA-MB-231 multicell spheroids, viability
Test: Anticancer human tumor MDA-MB-231 cell line growth inhibition [PI3K];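 note: spheroids exposed to agents for seven days before reading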;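 for viability, T/C: percent of vehicle control luminescence with DMSO treated spheroids as 100%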
Conditions: for IC50: curve of first compound; for viability, T/C: stronger effect = lower value
Outline: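 Combination activity was assessed by viability in multicellular tumor spheroids carrying HUVEC and MSC components. Agents were tested with PI3K inhibitors from a Cmax-based top dose (or 10 microM) downward in half-log increments.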

[1] = second compound 0.0316 µM, first compound 0.0316 µM
[2] = second compound 0.0316 µM, first compound 0.1 µM
[3] = second compound 0.0316 µM, first compound 0.316 µM
[4] = second compound 0.0316 µM, first compound 1 µM
[5] = second compound 0.1 µM, first compound 0.0316 µM
[6] = second compound 0.1 µM, first compound 0.1 µM
[7] = second compound 0.1 µM, first compound 0.316 µM
[8] = second compound 0.1 µM, first compound 1 µM
[9] = second compound 0.316 µM, first compound 0.0316 µM
[10] = second compound 0.316 µM, first compound 0.1 µM
[11] = second compound 0.316 µM, first compound 0.316 µM
[12] = second compound 0.316 µM, first compound 1 µM
[13] = second compound 1 µM, first compound 0.0316 µM
[14] = second compound 1 µM, first compound 0.1 µM
[15] = second compound 1 µM, first compound 0.316 µM
[16] = second compound 1 µM, first compound 1 µM
[17] = second compound 3.16 µM, first compound 0.0316 µM
[18] = second compound 3.16 µM, first compound 0.1 µM
[19] = second compound 3.16 µM, first compound 0.316 µM
[20] = second compound 3.16 µM, first compound 1 µM
[21] = second compound 10 µM, first compound 0.0316 µM
[22] = second compound 10 µM, first compound 0.1 µM
[23] = second compound 10 µM, first compound 0.316 µM
[24] = second compound 10 µM, first compound 1 µM

Compound: CC(C)NCC(C(=O)N1CCN(c2ncnc3c2C(C)CC3O)CC1)c1ccc(Cl)cc1 (centres undefined) + Cc1nc(NC(=O)N2CCCC2C(N)=O)sc1-c1ccnc(C(C)(C)C(F)(F)F)c1
- IC50 (second compound 0.0316 µM): 7.63 µM
- IC50 (second compound 0.1 µM): 6.69 µM
- IC50 (second compound 0.316 µM): 4.73 µM
- IC50 (second compound 1 µM): 4.4 µM
- IC50 (second compound 3.16 µM): 4.09 µM
- IC50 (second compound 10 µM): 3.7 µM
- viability, T/C [1]: 95.8%
- viability, T/C [2]: 95.9%
- viability, T/C [3]: 82.7%
- viability, T/C [4]: 83.5%
- viability, T/C (second compound 0.0316 µM, first compound 3.16 µM): 66.9%
- viability, T/C (second compound 0.0316 µM, first compound 10 µM): 44.2%
- viability, T/C [5]: 84.8%
- viability, T/C [6]: 79.9%
- viability, T/C [7]: 71.4%
- viability, T/C [8]: 73.5%
- viability, T/C (second compound 0.1 µM, first compound 3.16 µM): 64%
- viability, T/C (second compound 0.1 µM, first compound 10 µM): 42.5%
- viability, T/C [9]: 72.6%
- viability, T/C [10]: 77.8%
- viability, T/C [11]: 73.4%
- viability, T/C [12]: 63.4%
- viability, T/C (second compound 0.316 µM, first compound 3.16 µM): 55%
- viability, T/C (second compound 0.316 µM, first compound 10 µM): 42.6%
- viability, T/C [13]: 70.7%
- viability, T/C [14]: 66.6%
- viability, T/C [15]: 63.7%
- viability, T/C [16]: 60.4%
- viability, T/C (second compound 1 µM, first compound 3.16 µM): 55.6%
- viability, T/C (second compound 1 µM, first compound 10 µM): 40.4%
- viability, T/C [17]: 73.7%
- viability, T/C [18]: 66.4%
- viability, T/C [19]: 64.3%
- viability, T/C [20]: 60.6%
- viability, T/C (second compound 3.16 µM, first compound 3.16 µM): 54.3%
- viability, T/C (second compound 3.16 µM, first compound 10 µM): 40.4%
- viability, T/C [21]: 68.7%
- viability, T/C [22]: 65.5%
- viability, T/C [23]: 61.3%
- viability, T/C [24]: 59.9%
- viability, T/C (second compound 10 µM, first compound 3.16 µM): 53.4%
- viability, T/C (second compound 10 µM, first compound 10 µM): 37.8%

Compound: CCN1CCN(Cc2ccc(Nc3ncc(F)c(-c4cc(F)c5nc(C)n(C(C)C)c5c4)n3)nc2)CC1 + Cc1nc(NC(=O)N2CCCC2C(N)=O)sc1-c1ccnc(C(C)(C)C(F)(F)F)c1
- IC50 (second compound 0.0316 µM): 0.261 µM
- IC50 (second compound 0.1 µM): 0.0893 µM
- IC50 (second compound 0.316 µM): 0.0309 µM
- IC50 (second compound 1 µM): 0.0202 µM
- IC50 (second compound 3.16 µM): 0.0236 µM
- IC50 (second compound 10 µM): 0.0137 µM
- viability, T/C (second compound 0.0316 µM, first compound 0.00316 µM): 90.9%
- viability, T/C (second compound 0.0316 µM, first compound 0.01 µM): 75.5%
- viability, T/C [1]: 66.3%
- viability, T/C [2]: 54.2%
- viability, T/C [3]: 45.3%
- viability, T/C [4]: 49.6%
- viability, T/C (second compound 0.1 µM, first compound 0.00316 µM): 82.4%
- viability, T/C (second compound 0.1 µM, first compound 0.01 µM): 74.1%
- viability, T/C [5]: 59.8%
- viability, T/C [6]: 50.5%
- viability, T/C [7]: 40.8%
- viability, T/C [8]: 46.4%
- viability, T/C (second compound 0.316 µM, first compound 0.00316 µM): 72.3%
- viability, T/C (second compound 0.316 µM, first compound 0.01 µM): 66.7%
- viability, T/C [9]: 50.3%
- viability, T/C [10]: 40.9%
- viability, T/C [11]: 41.3%
- viability, T/C [12]: 47.9%
- viability, T/C (second compound 1 µM, first compound 0.00316 µM): 65.8%
- viability, T/C (second compound 1 µM, first compound 0.01 µM): 57.3%
- viability, T/C [13]: 45.8%
- viability, T/C [14]: 40.2%
- viability, T/C [15]: 40%
- viability, T/C [16]: 47.7%
- viability, T/C (second compound 3.16 µM, first compound 0.00316 µM): 66.2%
- viability, T/C (second compound 3.16 µM, first compound 0.01 µM): 58.6%
- viability, T/C [17]: 47.7%
- viability, T/C [18]: 41.6%
- viability, T/C [19]: 37.6%
- viability, T/C [20]: 48.4%
- viability, T/C (second compound 10 µM, first compound 0.00316 µM): 66.2%
- viability, T/C (second compound 10 µM, first compound 0.01 µM): 53.2%
- viability, T/C [21]: 44.4%
- viability, T/C [22]: 42%
- viability, T/C [23]: 39.4%
- viability, T/C [24]: 47.5%
